Assay results: PubChem BioAssay (NCI)
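Exposure lasted 48 hours, with cells grown in 96-well plates and compounds tested at five concentrations. Abbreviation: GI50, concentration required for 50% inhibition of growth. TGI: concentration producing complete growth inhibition.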

Experiments:
Assay in all cases: growth of human tumour cells (NCI), 48 h
786-0 renal = test system: 786-0 renal
HCT-116 colon = test system: HCT-116 colon
HOP-92 NSCLC = test system: HOP-92 NSCLC
HT29 colon = test system: HT29 colon
KM12 colon = test system: KM12 colon
MDA-N = test system: MDA-N
OVCAR-5 ovarian = test system: OVCAR-5 ovarian
RXF 393 renal = test system: RXF 393 renal
SK-MEL-2 melanoma = test system: SK-MEL-2 melanoma
TK-10 renal = test system: TK-10 renal
SR leukemia = test system: SR leukemia

Row | Structure (SMILES) | TGI (786-0 renal) [µM] | TGI (HCT-116 colon) [µM] | TGI (HOP-92 NSCLC) [µM] | TGI (HT29 colon) [µM] | TGI (KM12 colon) [µM] | TGI (MDA-N) [µM] | TGI (OVCAR-5 ovarian) [µM] | TGI (RXF 393 renal) [µM] | TGI (SK-MEL-2 melanoma) [µM] | TGI (TK-10 renal) [µM] | GI50 (HCT-116 colon) [µM] | GI50 (HOP-92 NSCLC) [µM] | GI50 (HT29 colon) [µM] | GI50 (KM12 colon) [µM] | GI50 (OVCAR-5 ovarian) [µM] | GI50 (RXF 393 renal) [µM] | GI50 (SK-MEL-2 melanoma) [µM] | GI50 (SR leukemia) [µM] | TGI (SR leukemia) [µM] | GI50 (TK-10 renal) [µM]
1 | CCOC(=O)/C=C1/Nc2cc(F)c(F)cc2NC1=O | > 100 | > 100 | > 100 | > 100 | > 100 | > 100 | > 100 | > 100 | > 100 | > 100 |  |  |  |  |  |  |  |  |  | 
2 | Cc1oc2c(C)c3oc(=O)cc(C)c3cc2c1CN | > 100 | > 100 |  | > 100 | > 100 |  | > 100 | > 100 | > 100 | 86.9 |  |  |  |  |  |  |  |  |  | 
3 | CC1=CC(=O)/C(=C/N2CCNC2=S)C(=O)O1 | > 100 | > 100 | > 100 | > 100 | > 100 | > 100 | > 100 | > 100 | > 100 | > 100 |  |  |  |  |  |  |  |  |  | 
4 | COC1CCC(n2c([C@@H]3CCCC(=O)N3c3ccc(F)c(F)c3)nc3cc(-c4c(C)noc4C)ccc32)CC1 (stereo not given in full) |  | 22.4 | 14.2 | 25.2 | 30.4 |  | > 100 | 17.7 | 35.5 | 12.7 | 10 | 2.04 | 2.54 | 14 | 17.2 | 4.82 | 11.4 | 0.755 | > 100 | 2.46
5 | C1=C[C@]2(CCC13OCCO3)COc1ccccc12 | > 100 | > 100 | > 100 | 80.4 | 75.5 | > 100 | > 100 |  | > 100 | > 100 |  |  |  |  |  |  |  |  | > 100 | 
6 | NC(=S)N/N=C(\C(=O)Nc1ccc(Cl)c(Cl)c1)C1=NN(c2ccccc2)C(c2cccc([N+](=O)[O-])c2)CC1=O (stereo not given) | 36.8 | 11.6 |  | 34.8 | > 100 |  | > 100 |  | > 100 | > 100 |  |  |  |  |  |  |  |  | > 100 | 
7 | C/C(=N\n1c(Cc2ccccc2)n[nH]c1=O)c1ccc([N+](=O)[O-])cc1 | > 100 | > 100 | > 100 | > 100 | > 100 | > 100 | > 100 | 57.2 | > 100 | > 100 |  |  |  |  |  |  |  |  |  | 
8 | O=[N+]([O-])c1ccc(Cl)cc1N/N=C/c1cccs1 | > 100 | > 100 |  | > 100 | > 100 | > 100 |  | > 100 |  | > 100 |  |  |  |  |  |  |  |  | > 100 | 
9 | C=CCc1cccc2cc(C(=O)Nc3nc(C45CC6CC(CC(C6)C4)C5)cs3)c(=O)oc12 | 54.6 |  | 43.1 | > 100 | > 100 | > 100 | > 100 | 22.5 |  | 89.8 |  |  |  |  |  |  |  |  | > 100 | 
10 | O=C1OC(C(O)C(O)C(O)CO)C(O)C1O (stereo not given) | > 100 | > 100 | > 100 | > 100 | > 100 |  | > 100 | > 100 | > 100 | > 100 |  |  |  |  |  |  |  |  | > 100 | 
11 | CN(/N=C/c1ccc(Cl)c(Cl)c1)C1=NCCN1 | 34.2 | 39.1 | 62.6 | > 100 | 67.6 | 31.9 | > 100 |  | 43.6 | > 100 |  |  |  |  |  |  |  |  | 86.7 | 
12 | O=c1c(S(=O)(=O)Oc2ccccc2)coc2cc(F)ccc12 | > 100 | > 100 |  | > 100 | > 100 | > 100 | > 100 | > 100 | > 100 | > 100 |  |  |  |  |  |  |  |  | > 100 | 
13 | Cc1ccsc1/C=N/Nc1ccccn1 | > 100 | > 100 | > 100 | > 100 | > 100 | > 100 | > 100 | > 100 | > 100 | > 100 |  |  |  |  |  |  |  |  |  | 
14 | S=C1CSc2c(cnc3ccccc23)N1 | > 100 | > 100 |  | > 100 | > 100 | > 100 | > 100 | > 100 |  | > 100 |  |  |  |  |  |  |  |  | > 100 | 
15 | COc1cc(C(CC(OC)OC)=C(C#N)C#N)cc(OC)c1OC | > 100 | 44.1 | 50 | 73.4 | 60.5 |  | > 100 | > 100 | 49.4 | > 100 |  |  |  |  |  |  |  |  | > 100 | 
16 | COc1ccc(N2C(=O)C3c4[nH]c5ccccc5c4C4CCC(C(C)(C)C)CC4C3C2=O)cc1OC (stereo not given) | 33.9 | 31.4 | 44.8 | > 100 |  |  |  | 29.7 |  |  |  |  |  |  |  |  |  |  | 39.9 | 
17 | O=C(NC(CO)CO)c1ccc2cc(C(=O)N3CC(CCl)c4ccc([N+](=O)[O-])cc43)[nH]c2c1 (stereo not given) | > 100 | > 100 | > 100 | > 100 | > 100 | > 100 | > 100 | > 100 | > 100 | > 100 |  |  |  |  |  |  |  |  |  | 
18 | CC(C)C[C@H](NC(=O)[C@H](CCc1ccccc1)NC(=O)c1ccc2ccccc2n1)B(O)O | 0.706 | 0.0595 | 0.28 | 0.144 | 0.295 |  | 0.617 | < 0.017 | 0.0407 | 0.407 |  |  |  |  |  |  |  |  |  | 
19 | Clc1ccc(-c2nn3c(C45CC6CC(CC(C6)C4)C5)nnc3s2)cc1 | > 100 | > 100 | > 100 | > 100 | > 100 |  | > 100 | > 100 | > 100 | > 100 |  |  |  |  |  |  |  |  | > 100 | 
20 | C/C(=C/c1c(C)[nH]c(=O)[nH]c1=O)C(=O)O |  | > 1380 | > 1380 | > 1380 | > 1380 |  | 1370 | > 1380 | > 1380 |  |  | > 1380 |  |  |  |  | > 1380 |  |  | 
21 | COc1ccc(/C=C/C(c2cc(OC)c(OC)c(OC)c2)n2cncn2)cc1O (stereo not given) |  | > 100 | > 100 | 17.2 | > 100 |  | 72.6 |  | > 100 | > 100 | 0.041 | 67 | 3.68 | 0.0405 | 4.48 |  | 0.0438 | 0.0248 | > 100 | 21.2
